Results: patent publication US20260125371A1, “METHOD FOR INHIBITING CLOSTRIDIOIDES DIFFICILE SPORE GERMINATION” (UNIVERSITY OF NOTRE DAME DU LAC, priority 2022, published 2026)
In brackets after ≈: the same amount, converted by molar mass.

Assays:
C. difficile ATCC 43255 = assay: Determination of minimal-inhibitory concentrations (microdilution), C. difficile ATCC 43255; type: cell-based, Clostridioides difficile; settings: for MIC (μg/mL) 48 h: C. difficile ATCC 43255, 48-h incubation; for MIC (μg/mL) 24 h: C. difficile ATCC 43255, 24 h
S. aureus = assay: MIC against S. aureus strains; type: cell-based; settings: S. aureus ATCC 29213, 24 h

Structure (SMILES) | MIC (μg/mL) 48 h (C. difficile ATCC 43255) | MIC (μg/mL) 24 h (C. difficile ATCC 43255) | MIC (μg/mL) 24 h (S. aureus)
FC(F)(F)c1ccc(Oc2ccc(-c3noc(-c4n[nH]cc4Cl)n3)cc2)cc1 [Compound 26] | >128 µg/mL | >128 µg/mL | 1 µg/mL (≈ 2.46 µM)
FC(F)(F)c1ccc(Oc2ccc(-c3noc(-c4n[nH]cc4Br)n3)cc2)cc1 [Compound 27] | >128 µg/mL | >128 µg/mL | 1 µg/mL (≈ 2.22 µM)
FC(F)(F)c1ccc(Oc2ccc(-c3noc(-c4n[nH]cc4I)n3)cc2)cc1 [Compound 28] | 128 µg/mL (≈ 257 µM) | 128 µg/mL (≈ 257 µM) | 2 µg/mL (≈ 4.01 µM)
OCC#Cc1c[nH]nc1-c1nc(-c2ccc(Oc3ccc(C(F)(F)F)cc3)cc2)no1 [Compound 29] | >128 µg/mL | >128 µg/mL | 4 µg/mL (≈ 9.38 µM)
O=C1C[C@H](c2nc(-c3ccc(Oc4ccc(C(F)(F)F)cc4)cc3)no2)CN1 [Compound 31] | >128 µg/mL | >128 µg/mL | >128 µg/mL
